# Measured values: PubChem BioAssay (NCI)
# Values joined by “and” are separate entries in the source; they are usually repeats but may differ in a detail not shown here. Equal values may be shown once.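 Test compounds were applied to cells in 96-well plates for 48 hours at 5 doses. GI50 = concentration required for 50% inhibition of growth. TGI is the concentration that stops growth completely.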
# Tests used:
# Test in all cases: growth of human tumour cells (NCI), 48 h
# OVCAR-4 ovarian = test system: OVCAR-4 ovarian
# MOLT-4 leukemia = test system: MOLT-4 leukemia
# OVCAR-5 ovarian = test system: OVCAR-5 ovarian
# SN12C renal = test system: SN12C renal
# NCI/ADR-RES ovarian = test system: NCI/ADR-RES ovarian
# HT29 colon = test system: HT29 colon
# MALME-3M melanoma = test system: MALME-3M melanoma
# NCI-H460 lung = test system: NCI-H460 lung
# SF-295 CNS = test system: SF-295 CNS
# NCI-H522 lung = test system: NCI-H522 lung
Compound,GI50 (OVCAR-4 ovarian),TGI (OVCAR-4 ovarian),GI50 (MOLT-4 leukemia),TGI (MOLT-4 leukemia),GI50 (OVCAR-5 ovarian),TGI (OVCAR-5 ovarian),GI50 (SN12C renal),TGI (SN12C renal),GI50 (NCI/ADR-RES ovarian),TGI (NCI/ADR-RES ovarian),GI50 (HT29 colon),TGI (HT29 colon),GI50 (MALME-3M melanoma),TGI (MALME-3M melanoma),GI50 (NCI-H460 lung),TGI (NCI-H460 lung),GI50 (SF-295 CNS),TGI (SF-295 CNS),GI50 (NCI-H522 lung) [µM],TGI (NCI-H522 lung)
NNCCc1ccc(NC(=O)CCCc2ccc(C(=O)Nc3ccccc3N)cc2)cc1,42.4 µM,> 100 µM,3.22 µM,26.8 µM,8.15 µM,> 100 µM,28 µM,> 100 µM,21.6 µM,> 100 µM,4.07 µM,> 100 µM,2.71 µM,50.8 µM,13.3 µM,> 100 µM,13.3 µM,> 100 µM,8.13,> 100 µM
CCCCCCCCCCNC(=O)CI,1.87 µM,5.42 µM,0.298 µM,1.07 µM,3.39 µM,10.4 µM,1.21 µM,2.8 µM,2.32 µM,5.56 µM,1.98 µM,3.76 µM,0.213 µM,0.494 µM,3.05 µM,9.66 µM,4.58 µM,13.2 µM,0.151,0.331 µM
O=C(/C=C/c1ccccc1)c1ccccc1,,> 10 µM,,> 3.16 µM,,> 10 µM,,> 10 µM,,> 10 µM,,> 10 µM,,> 10 µM,,> 10 µM,,> 10 µM,,> 10 µM
N[C@H](CCC(=O)N[C@@H](Cc1c[nH]c2ccccc12)C(=O)O)C(=O)O,> 100 µM,> 100 µM,> 100 µM,> 100 µM,> 100 µM,> 100 µM,> 100 µM,> 100 µM,> 100 µM,> 100 µM,> 100 µM,> 100 µM,> 100 µM,> 100 µM,> 100 µM,> 100 µM,> 100 µM,> 100 µM,> 100,> 100 µM
Nc1cc(Br)c(-c2nnc(CCC(=O)c3nc4ccccc4[nH]3)o2)c(Br)c1,5.49 µM,78.3 µM,4.94 µM,> 100 µM,29.4 µM,> 100 µM,29.5 µM,> 100 µM,22.6 µM,> 100 µM,19.2 µM,83.5 µM,2.06 µM,17.2 µM,3.99 µM,20.1 µM,9.78 µM,35.6 µM,2.9,16.9 µM
COc1ccc(-c2ccc3c(N4CCOC[C@@H]4C)nc(N4CCOC[C@@H]4C)nc3n2)cc1CO,0.00414 µM and < 0.0142 µM,0.0382 µM and 0.12 µM,0.00584 µM and 0.0488 µM,> 6.64 µM and 37.1 µM,0.00607 µM and 0.0331 µM,60.3 µM,0.0053 µM and 0.0208 µM,> 100 µM,0.013 µM and 0.0584 µM,,0.00674 µM and 0.0385 µM,> 10 µM and 5.9 µM,0.00289 µM and < 0.01 µM,0.0203 µM and 0.0392 µM,0.00417 µM and 0.0101 µM,> 100 µM,0.00412 µM and < 0.011 µM,0.0462 µM and 0.18 µM,0.00484,
C#CCOc1cccc(Nc2ncnc3c(NC(=O)C=C)cccc23)c1,37.8 µM,> 100 µM,19.4 µM,> 100 µM,27.6 µM,> 100 µM,16.5 µM,62.6 µM,19.8 µM,98.1 µM,19.3 µM,98.8 µM,18.5 µM,52 µM,27 µM,80.4 µM,27.4 µM,> 100 µM,14.1,32.6 µM
NCCNCC1CCNCC1,,> 100 µM,,> 100 µM,,> 100 µM,,> 100 µM,,> 100 µM,,> 100 µM,,> 100 µM,,> 100 µM,,> 100 µM,,> 100 µM
COc1cc2c(Nc3cc(Cl)c(OC)c(Cl)c3)c(C#N)cnc2cc1OCCCN1CCN(C)CC1,1.9 µM,11.3 µM,1.67 µM,7.92 µM,1.56 µM,11.7 µM,0.95 µM,17.2 µM,2.46 µM,9.55 µM,0.927 µM,3.25 µM,1.6 µM,3.7 µM,1.91 µM,8.47 µM,2.49 µM,7.45 µM,0.365,2.17 µM
CN(C)C(=S)SSC(=S)N(C)C,,20.8 µM and 8.96 µM and 39.1 µM,,75.1 µM and 37.5 µM and 23.8 µM,14.9 µM and > 58.4 µM and 16.6 µM,28.2 µM and > 72.6 µM and 33.5 µM,14.7 µM,28.7 µM and > 46.4 µM and 54.5 µM,,30.4 µM and 36 µM,0.112 µM and 0.29 µM,> 54.9 µM and 30.7 µM,16.3 µM,34.7 µM and 50.1 µM and 31 µM,0.365 µM and 0.324 µM and 1.43 µM,25.2 µM and 13.6 µM and 53 µM,,81.9 µM and > 100 µM and 57.1 µM,,14.7 µM and 10.4 µM and 8.24 µM
Nc1ccccc1O.O.O=C(O)C1[O][Sb][O]C1C(=O)O (stereo not drawn),16 µM,30.6 µM,10.8 µM,> 100 µM,18.4 µM,38.5 µM,7.7 µM,21.3 µM,28.6 µM,> 87.2 µM,16.4 µM,> 56.2 µM,1.65 µM,4.97 µM,21.6 µM,58.5 µM,39.9 µM,> 100 µM,2.17,6.24 µM
CN(C)CCNCCN,,> 100 µM,,> 100 µM,,> 100 µM,,> 100 µM,,> 100 µM,,> 100 µM,,> 100 µM,,> 100 µM,,> 100 µM,,> 100 µM
COC(c1ccc(C(C)(C)C)cc1)(c1ccc(C(C)(C)C)cc1)c1ccc(C(C)(C)C)cc1,,> 100 µM,,> 100 µM,,> 100 µM,,> 100 µM,,> 100 µM,,> 100 µM,,> 100 µM,,> 100 µM,,> 100 µM,,> 100 µM
